Consider ten compounds from ChEMBL document CHEMBL1138396, “Constrained azacyclic analogues of the immunomodulatory agent FTY720 as molecular probes for sphingosine 1-phosphate receptors” (Bioorg Med Chem Lett, 2007).

Assay [1] addresses T1, Sphingosine kinase 2 (Homo sapiens) (UniProt Q9NRA0).
T1 sequence (whole entry): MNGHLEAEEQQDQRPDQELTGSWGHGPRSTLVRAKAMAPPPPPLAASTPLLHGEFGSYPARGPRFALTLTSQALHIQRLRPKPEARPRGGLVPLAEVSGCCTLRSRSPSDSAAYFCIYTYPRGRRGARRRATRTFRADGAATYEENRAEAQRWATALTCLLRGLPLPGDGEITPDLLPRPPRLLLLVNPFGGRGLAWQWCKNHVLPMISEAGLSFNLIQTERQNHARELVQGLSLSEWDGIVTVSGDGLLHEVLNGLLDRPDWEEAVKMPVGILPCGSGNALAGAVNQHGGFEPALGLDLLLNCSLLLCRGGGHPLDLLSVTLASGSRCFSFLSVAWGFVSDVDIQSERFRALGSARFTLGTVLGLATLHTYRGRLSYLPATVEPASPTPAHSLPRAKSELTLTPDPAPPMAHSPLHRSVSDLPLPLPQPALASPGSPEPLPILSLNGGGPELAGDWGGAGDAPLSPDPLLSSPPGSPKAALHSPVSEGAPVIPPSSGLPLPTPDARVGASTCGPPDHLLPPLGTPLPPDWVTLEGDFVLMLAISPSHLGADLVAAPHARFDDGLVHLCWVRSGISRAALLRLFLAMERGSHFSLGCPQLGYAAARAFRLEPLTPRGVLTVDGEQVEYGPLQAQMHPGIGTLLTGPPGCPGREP
As to the kind of experiment: Effect on rate of phosphorylation of human recombinant SPHK2 expressed in HEK293 cells. The assay is classed as cell-based.

The target in assay [2] is Sphingosine 1-phosphate receptor 1 (Homo sapiens, UniProt P21453). As to the kind of experiment: Activity at human recombinant S1P1 receptor expressed in CHO cells assessed as increase in calcium release by FLIPR assay. Format: functional, cell-based.
For assay [3], the target named is Sphingosine 1-phosphate receptor 3 (Homo sapiens, UniProt Q99500). As to the kind of experiment: Activity at human recombinant S1P3 receptor expressed in CHO cells assessed as increase in calcium release by FLIPR assay. The assay is classed as functional, cell-based.
Assay [4] addresses T2, Sphingosine 1-phosphate receptor 4 (Homo sapiens, UniProt O95977).
T2 sequence (O95977 whole entry): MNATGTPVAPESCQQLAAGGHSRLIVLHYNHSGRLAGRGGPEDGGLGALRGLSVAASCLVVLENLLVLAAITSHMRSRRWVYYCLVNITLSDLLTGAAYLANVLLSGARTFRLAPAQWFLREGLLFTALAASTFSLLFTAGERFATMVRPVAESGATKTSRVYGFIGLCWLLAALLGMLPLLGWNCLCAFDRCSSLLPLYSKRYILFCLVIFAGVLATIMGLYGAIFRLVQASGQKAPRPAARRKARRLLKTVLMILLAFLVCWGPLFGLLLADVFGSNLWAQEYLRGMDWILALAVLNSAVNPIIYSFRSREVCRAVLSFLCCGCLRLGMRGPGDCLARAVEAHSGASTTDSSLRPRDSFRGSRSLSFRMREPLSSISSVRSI
As to the kind of experiment: Activity at human recombinant S1P4 receptor expressed in CHO cells assessed as increase in calcium release by FLIPR assay. The assay is classed as functional, cell-based.

The target in assay [5] is Sphingosine 1-phosphate receptor 5 (Homo sapiens, UniProt Q9H228). As to the kind of experiment: Activity at human recombinant S1P5 receptor expressed in CHO cells assessed as increase in calcium release by FLIPR assay. Format: functional, cell-based.
Sphingosine 1-phosphate receptor 5, sequence (Q9H228 whole entry): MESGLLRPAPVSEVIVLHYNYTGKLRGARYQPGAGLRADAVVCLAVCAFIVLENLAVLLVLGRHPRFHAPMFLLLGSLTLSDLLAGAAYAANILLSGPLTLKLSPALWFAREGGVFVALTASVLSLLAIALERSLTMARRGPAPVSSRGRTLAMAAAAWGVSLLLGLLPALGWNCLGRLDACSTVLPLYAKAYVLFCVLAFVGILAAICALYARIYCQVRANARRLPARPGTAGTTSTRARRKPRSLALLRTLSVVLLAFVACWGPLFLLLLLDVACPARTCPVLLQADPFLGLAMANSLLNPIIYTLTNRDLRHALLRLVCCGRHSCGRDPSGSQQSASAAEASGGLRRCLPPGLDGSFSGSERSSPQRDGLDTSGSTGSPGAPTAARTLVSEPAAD

Sphingosine 1-phosphate receptor 1, sequence (P21453 whole entry): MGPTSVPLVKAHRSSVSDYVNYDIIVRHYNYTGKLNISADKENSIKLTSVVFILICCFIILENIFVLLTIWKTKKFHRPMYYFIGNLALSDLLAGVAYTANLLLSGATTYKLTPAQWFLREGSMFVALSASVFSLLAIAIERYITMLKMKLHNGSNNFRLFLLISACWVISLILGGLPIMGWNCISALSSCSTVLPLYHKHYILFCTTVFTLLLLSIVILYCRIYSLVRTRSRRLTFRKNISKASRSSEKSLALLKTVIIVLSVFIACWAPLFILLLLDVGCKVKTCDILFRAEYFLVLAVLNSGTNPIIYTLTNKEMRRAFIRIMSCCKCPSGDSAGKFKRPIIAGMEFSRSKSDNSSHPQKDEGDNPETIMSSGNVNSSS
Sphingosine 1-phosphate receptor 3, sequence (Q99500 whole entry): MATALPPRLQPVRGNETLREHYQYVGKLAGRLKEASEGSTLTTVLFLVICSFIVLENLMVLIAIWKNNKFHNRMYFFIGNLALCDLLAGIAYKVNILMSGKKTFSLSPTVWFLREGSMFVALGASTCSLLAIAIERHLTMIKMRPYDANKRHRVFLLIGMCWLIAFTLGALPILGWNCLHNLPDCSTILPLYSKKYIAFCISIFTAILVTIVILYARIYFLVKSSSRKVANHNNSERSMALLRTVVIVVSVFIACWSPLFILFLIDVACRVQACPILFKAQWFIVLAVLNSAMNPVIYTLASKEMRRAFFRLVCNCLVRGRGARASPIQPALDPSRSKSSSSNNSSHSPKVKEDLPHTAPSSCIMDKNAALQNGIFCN

In the case of `CCCCCCCCc1ccc([C@@H]2C[C@@H](CO)N[C@H]2CO)cc1`, the Activity in assay [1] is less than 0.1%.
As to `CCCCCCCCc1ccc([C@H]2C[C@H](COP(=O)(O)O)N[C@@H]2CO)cc1`, the EC50 in assay [2] is more than 1 µM; in assay [3], more than 1 µM; in assay [4] it was 0.0074 µM; in assay [5], 0.0102 µM.
Turning to `CCCCCCCCc1ccc(CC[C@@](N)(CO)COP(=O)(O)O)cc1`, in assay [4], the EC50 was determined as 0.0186 µM.
For the compound `CCCCCCCCc1ccc([C@@H]2C[C@@H](COP(=O)(O)O)N[C@H]2CO)cc1`, the 50% effective concentration (EC50) in assay [2] was more than 1 µM; in assay [3], more than 1 µM; in assay [4], 0.0168 µM; in assay [5], 0.0058 µM.
For the compound `CCCCCCCCCCCCC/C=C/[C@@H](O)[C@@H](N)COP(=O)(O)O`, the EC50 worked out at 0.00055 µM in assay [2], 0.0016 µM in assay [3] and 0.0079 µM in assay [4].
As to `CCCCCCCCc1ccc(CCC(N)(CO)CO)cc1`, the Activity in assay [1] was determined as 13%.
Turning to `CCCCCCCCc1ccc([C@H]2C[C@H](CO)N[C@@H]2COP(=O)(O)O)cc1`, the EC50 in assay [2] is more than 1 µM; in assay [3] it was more than 1 µM; in assay [4] it was 0.347 µM; in assay [5] it was 0.134 µM.
With `CCCCCCCCCCCCC/C=C/[C@@H](O)[C@@H](N)CO`, the Activity in assay [1] was determined as 100%.
Consider `CCCCCCCCc1ccc([C@@H]2C[C@@H](CO)N[C@H]2COP(=O)(O)O)cc1`, for which the EC50 was more than 1 µM in assay [2], more than 1 µM in assay [3], 0.0331 µM in assay [4] and 0.0213 µM in assay [5].
Regarding `CCCCCCCCc1ccc([C@H]2C[C@H](CO)N[C@@H]2CO)cc1`, the Activity in assay [1] amounted to 55%.
